{"source": "patent US20130034509A1", "about": "“COSMETIC TREATMENT METHOD INVOLVING A COMPOUND CAPABLE OF CONDENSING IN SITU” (L'OREAL, priority 2009, published 2013)", "key": {"[1]": {"assay": "Insolubility of the deposit in water in the Petri dish (Example 3)", "conditions": "general statement in the description"}, "[2]": {"conditions": "dispersion contacted on a film of APTES"}}}
{"compound": "CCO[Si](CCCN)(OCC)OCC", "note": "[APTES, γ-aminopropyl triethoxysilane]", "values": [{"measurement": "water solubility of the material resulting from condensation", "setting": "[1]", "value": "high water solubility"}]}
{"compound": "Zinc Pyrithione", "values": [{"measurement": "flocculation of the dispersion", "setting": "[2]", "value": "almost immediate flocculation"}]}
